# Results taken from patent publication US8168199B2, “Dipeptidyl peptidase IV inhibitors for the treatment of schizophrenia and depression” (priority 2000, dated 2012).
# How the values were obtained:
# dipeptidyl peptidase IV = molecular target: T1, dipeptidyl peptidase IV (Homo sapiens, UniProt P27487); details: human serum incubated with neuropeptide Y or peptide YY; cited from earlier work
# T1 construct: from tissue; host or cells: human serum
# [1] = test system: Male WistarF/Han (WF) rats; test: Social interaction (SI) test with Y1R antagonist BIBP3226, P32/98 and NPY (Example 4); format: in vivo, rat
# Description: (§1) Animals. Male WistarF/Han (WF) rats (Central Animal Laboratory, Hannover Medical School, Hannover, Germany, weighing 330±31 g±SD, were housed in a sound-proof, temperature controlled (24.0±0.5° C.) room under specific pathogen free conditions with a 12/12 h dark/light cycle (lights on at 07.00 with illumination level of 80 Lux). Food (Altromin lab chow pellets) and tap water were available ad libitum. Under ketamine/xylasine (100/5 mg/kg, i.p.) anesthesia, the rats were fixed in a Kopf stereotaxic frame and implanted with cannulae (Plastic One, Inc., Roanoke, Va., USA) above the lateral ventricle. All research and animal care procedures were approved by the Lower Saxony district government (Hannover, Germany) and followed principles described in the European Community's Council Directive of 24 Nov. 1986 (86/609/EEC).
# (§2) Surgery and i.c.v. application. […]
# (§3) Animals were randomly divided into eight experimental groups (n=6-8/group), which completed one SI test of anxiety: (1) aCSF+aCSF+aCSF; (2) BIBP+aCSF+aCSF; (3) aCSF+P32/98+aCSF; (4) BIBP+P32/98+aCSF; (5) aCSF+aCSF+NPY; (6) BIBP+aCSF+NPY; (7) aCSF+[…]+NPY; (8) BIBP+P32/98+NPY. […] The time spent in active social interaction (SI-time), 1 h, and 12 h food-intake were measured. […]
# Social interaction (SI) test. […] Behavior was monitored using a video camera placed above the field inside the testing/isolation box. The SI behavior of both rats was recorded on-line from a monitor placed outside on top of the box. The following parameters were scored by an observer (HPN) unaware of the substrain of rats: duration of time spent in sniffing, following, crawling under and over other rats, but not passive body contact (resting, sleeping). […]
# (§4) Statistical analysis. Data obtained from the measures SI time and 1 h food intake were analyzed by one-way (factor: “treatment”) ANOVA. […]
# [2] = test system: Male WistarF/Han (WF) rats; test: 1 h food-intake with Y1R antagonist BIBP3226, P32/98 and NPY (Example 4); format: in vivo, rat; details: i.c.v. BIBP3226 100 nmol
# Description: as §1, §2, §3, §4
# [3] = i.c.v. injection; cited from earlier work
# rats = details: administered into the dorsal periaqueductal gray matter; cited from earlier work
# [4] = test system: Male WistarF/Han (WF) rats; test: 1 h and 12 h food-intake after i.c.v. P32/98 and NPY (Example 3); format: in vivo, rat; details: i.c.v. P32/98 5 pmol-500 nmol, NPY 50 pmol-1.6 nmol; dark cycle
# Description: as §1, with “330-370 g,” for “330±31 g±SD,”
# Surgery and i.c.v. application. For surgery, rats were anesthetized and prepared with i.c.v. cannulae (coordinates: A: −0.7 mm caudal, L: 1.4 mm lateral to bregma; and V3.2 mm ventral to the skull surface; tooth bar +3.0 above ear bars) using standard stereotaxic procedures as described in detail elsewhere (von Hörsten et al., 1998a, b, c). After a 7-day recovery period, successful ventricle cannulation was confirmed by an angiotensin drinking response (von Hörsten et al., 1998a). Rats showing a positive drinking response (n=59) were then habituated to experimental handling by daily sham injections for seven days.
# Animals were randomly divided into two sets of four experimental groups (n=5-6/group), which completed different consecutive SI test of anxiety. […] The time spent in active social interaction (SI-time), 1 h and 12 h food-intake were measured. […]
# Statistical analysis. Data from repeated observations (food intake) were analyzed by two-way analyses of variance for repeated measures (ANOVA) (factors: “substrain” and “food intake” as repeated measure). Data obtained from simple measures such as DPIV activity or SI time were analyzed by one-way (factor: “substrain”) ANOVA. […]
# T1 sequence (P27487 39-766 limits assumed): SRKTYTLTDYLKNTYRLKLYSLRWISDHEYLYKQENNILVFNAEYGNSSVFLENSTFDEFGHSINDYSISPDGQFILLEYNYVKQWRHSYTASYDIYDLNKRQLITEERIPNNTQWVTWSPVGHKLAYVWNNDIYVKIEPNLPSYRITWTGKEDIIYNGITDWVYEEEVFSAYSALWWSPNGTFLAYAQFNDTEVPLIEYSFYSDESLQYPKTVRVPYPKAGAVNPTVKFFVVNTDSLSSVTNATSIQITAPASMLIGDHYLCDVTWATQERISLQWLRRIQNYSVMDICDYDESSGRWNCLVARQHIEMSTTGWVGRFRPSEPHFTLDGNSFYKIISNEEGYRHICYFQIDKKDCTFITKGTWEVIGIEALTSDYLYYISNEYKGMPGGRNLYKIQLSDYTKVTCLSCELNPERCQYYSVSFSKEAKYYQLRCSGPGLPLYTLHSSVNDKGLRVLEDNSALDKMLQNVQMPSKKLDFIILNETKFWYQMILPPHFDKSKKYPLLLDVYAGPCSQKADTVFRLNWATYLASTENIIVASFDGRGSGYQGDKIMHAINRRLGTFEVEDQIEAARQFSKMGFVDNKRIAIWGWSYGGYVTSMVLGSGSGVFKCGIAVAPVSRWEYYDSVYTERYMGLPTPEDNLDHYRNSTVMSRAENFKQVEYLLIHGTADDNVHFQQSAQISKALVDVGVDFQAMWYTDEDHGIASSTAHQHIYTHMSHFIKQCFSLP
compound,measurement,setting,value
Ile-Pro-Ile [diprotin A],formation of Tyr-Pro in serum,dipeptidyl peptidase IV,blocked
NC(N)=NCCC[C@@H](NC(=O)C(c1ccccc1)c1ccccc1)C(=O)NCc1ccc(O)cc1 [BIBP3226],effect of Y1 receptor antagonist pre-treatment on P32/98-induced potentiation of NPY anxiolysis (SI behavior),"[1]; i.c.v. BIBP3226 100 nmol, P32/98 50 nmol, NPY 0.8 nmol",can block
same,effect of Y1 R blockade on 1 h feeding effects,[2],only partly affected
same,anxiety-related behavior in the elevated plus-maze test,[3],anxiogenic-like effects
same,locomotor effect in the elevated plus-maze test,[3],without any locomotor deficit
same,time spent in active social interaction,rats,decreased
NCCCC[C@H](N)C(=O)N1CCCC1 [Lys-pyrrolidine],formation of Tyr-Pro in serum,dipeptidyl peptidase IV,blocked
"Rat neuropeptide Y1-36 [NPY, reference compound]",amount of food eaten within 1 h,[4],“u-shaped” dose-dependent feeding effect
same,"SI-time, NPY alone",[1]; i.c.v. 0.8 nmol,anxiolytic-like effect
